{
  "source": "patent US20060029644A1",
  "about": "“In vitro biochemical reactions with free anhydrous D-ribose” (priority 2004, published 2006)",
  "key": {"[1]": {"assay": "stability of the powder on heating", "type": "physicochemical", "conditions": "for stability of the powder when heated: 150° F., heated alone or mixed with each other"}, "solubility in water": {"assay": "solubility in water", "type": "physicochemical"}, "[2]": {"conditions": "taken in 20 grams or less a day; cited from earlier work"}},
  "note": "Entries after “also recorded” stand apart in the source; their conditions may differ.",
  "data": [
    {"smiles": "OC[C@H]1O[C@@H](O[C@H]2[C@H](O)[C@@H](O)C(O)O[C@@H]2CO)[C@H](O)[C@@H](O)[C@H]1O", "note": "(stereo partly drawn) [lactose, reference compound]", "values": [
      {"measurement": "stability of the powder when heated", "setting": "[1]", "result": "remain powders"}
    ]},
    {"smiles": "OC[C@H]1O[C@@](CO)(O[C@H]2O[C@H](CO)[C@@H](O)[C@H](O)[C@H]2O)[C@@H](O)[C@@H]1O", "note": "[sucrose, reference compound]", "values": [
      {"measurement": "stability of the powder when heated", "setting": "[1]", "result": "remain powders"}
    ]},
    {"smiles": "O=C(CO)[C@@H](O)[C@H](O)[C@H](O)CO", "note": "[fructose, reference compound]", "values": [
      {"measurement": "stability of the powder when heated", "setting": "[1]", "result": "remain powders"}
    ]},
    {"smiles": "O.O=C[C@H](O)[C@H](O)[C@H](O)CO", "note": "[ribose monohydrate, D-ribose monohydrate]", "values": [
      {"measurement": "solubility in water", "setting": "solubility in water; listed as monohydrate", "result": "very soluble in water"},
      {"measurement": "solubility in water", "setting": "solubility in water; monohydrate", "result": "highly soluble in water; also recorded: extreme solubility; also recorded: highest possible solubility in water"},
      {"measurement": "stability compared with the anhydrous powder", "setting": "[1]; especially with water, sugars and some consumable monohydrates", "result": "far more stable"}
    ]},
    {"smiles": "O=C[C@H](O)[C@H](O)[C@H](O)CO", "note": "[anhydrous D-ribose]", "values": [
      {"measurement": "temperature to which the powder can be heated without losing its powdery form", "setting": "[1]", "result": "< 120", "unit": "° F."},
      {"measurement": "stability of the powder when heated", "setting": "[1]", "result": "unstable"},
      {"measurement": "toxicity", "setting": "[2]", "result": "extremely low toxicity"}
    ]}
  ]
}
